According to patent US8354447B2, “mGLU receptors antagonists for treating disorders associated with mGLU receptors including addiction and depression” (The Scripps Research Institute, priority 2002, dated 2013):

Experiments:
[1] = 9 mg/kg/day nicotine salt (3.16 mg/kg, free base) by osmotic mini-pump; cited from earlier work
male Wistar rats [2] = details: nicotine 0.25 mg/kg SC
Description: Trials began with an electrical stimulus followed by a 7.5-s response window within which the animal could make a response to receive a second contingent stimulus identical to the initial noncontingent stimulus. A response during this 7.5-s window was considered a positive response, whereas the lack of a response was considered a negative response. Additional responses during a 2-s period immediately following a positive response had no consequence. The intertrial interval (ITI) that followed either a positive response or the end of the response window (in the case of a negative response) ranged from 7.5 to 12.5 s with an average duration of 10 s. […] Subjects then were tested on a current-threshold procedure in which stimulus intensities were varied during four alternating descending and ascending series with a step size of 5 mA. Blocks of three trials were offered at each current step with the starting current of the first descending series set at 30-40 mA above the subjects' individual baseline thresholds estimated at the end of preliminary training. […] An ascending series was terminated after two consecutive blocks of trials during which the animal made positive responses on at least two out of the three trials or after 15 successive increments were presented. The mean of the four current thresholds from the alternating series was defined as the subject's ICSS threshold for that session. A series was terminated after either 15 stimulus increments (or decrements) had occurred, or after the determination of the threshold for the series (see below). Each test session typically lasted 30 min.

male Wistar rats [3] = experiment: Nicotine self-administration and food-maintained responding on a fixed ratio schedule in rats; type: in vivo, rat
Description: Two additional groups of rats were allowed to respond for food (45 mg Noyes food pellet) under a FR5 TO20 sec (n=10), and a FR5 TO210 sec (n=10) schedule. The two different schedules were employed to allow assessment of the effects of MPEP on responding for food under a reinforcement schedule (FR5 TO20 sec) identical to that used for nicotine, and under a reinforcement schedule (FR5 TO210) that equated response rates for food to those seen for nicotine. […] All test sessions were conducted for one hour per day, five days per week.
After acquiring stable nicotine self-administration at either 0.01 mg/kg/infusion (n=9) or 0.03 mg/kg/infusion (n=9), or stable food-maintained responding on the FR5 TO 20 sec schedule (n=10) or the FR5 TO210 sec schedule (n=10), drug testing was initiated. MPEP (0, 1, 3 and 9 mg/kg) was administered intraperitoneally 30 minutes before the session, according to a Latin Square design, with at least six days elapsing between each test dose.

mice [4] = details: 30 mg/kg i.p.; cited from earlier work
Wistar rats = experiment: Cocaine self-administration under a fixed ratio schedule, ShA and LgA rats; type: in vivo, rat
Description: Rats (n=14) were food restricted to maintain them at 85% of their normal body weight obtained under free-feeding conditions, then trained to press a lever for 45 mg food pellets on a fixed-ratio 5 (FR5) schedule of reinforcement. […] Thus, a FR5 TO20 sec schedule of reinforcement was used.
The frequency of the stimulation was selected for individual animals so that baseline current-intensity thresholds of each subject were within 50-200 μA, and thus allowed both threshold elevations and lowerings to be detected. The frequency was held constant throughout the experiment. […] Current intensities were altered in 5 μA steps. […] Each testing session was ~30 min in duration. […] From day 10 onwards (the ‘escalation’ period), access to cocaine self-administration was increased from 1 h to 6 h per daily session in one group of rats (Long Access or LgA rats; n=7). Previous studies have shown that this schedule of access to cocaine self-administration results in a progressive increase or ‘escalation’ in daily cocaine consumption (Ahmed and Koob, 1997; Ahmed et al. 2001). In the other group (Short Access or ShA rats; n=7), access to cocaine self-administration was maintained at 1 h per daily session. Previous studies have shown that this schedule of access to cocaine self-administration maintains a stable level of daily cocaine consumption. After 22 days of 1 h (ShA) or 6 h (LgA) daily access to cocaine self-administration, both groups of rats received their first MPEP injection.

mice [5] = details: Chiamulera et al. 2001; cited from earlier work

Question: With `CN1CCCC1c1cccnc1` (single isomer, unassigned; (-)) [nicotine, (−)-1-methyl-2-(3-pyridyl) pyrrolidine] as the molecule, how does the “stable plasma nicotine levels” value [1] read?
Answer: Its value is about 44 ng/mL.

Question: What about the brain reward thresholds (male Wistar rats [2]) of the same molecule?
Answer: Its brain reward thresholds is “resulted in lowering of brain reward thresholds”.

Question: For `Cc1cccc(C#Cc2ccccc2)n1` [MPEP, 2-methyl-6-(phenylethynyl)-pyridine], which “Number of reinforcers earned during the entire 1 hour session” value (“Number” for short) (male Wistar rats [3]; 1 mg/kg MPEP, 0.01 mg/kg/inf nic, FR5 TO20 sec) is on record?
Answer: The value was 21 ± 3.1.

Question: What about the “Number” value (male Wistar rats [3]; 1 mg/kg MPEP, 0.03 mg/kg/inf nic, FR5 TO20 sec) of the same molecule?
Answer: The value was 13 ± 1.9.

Question: What about the “Number” value (male Wistar rats [3]; 1 mg/kg MPEP, 45 mg food pellet, FR5 TO20 sec) of the same molecule?
Answer: The value was 131.3 ± 8.2.

Question: And the “Number” value (male Wistar rats [3]; 1 mg/kg MPEP, 45 mg food pellet, FR5 TO210 sec)?
Answer: The value was 16.3 ± 0.3.

Question: And the “Number” value (male Wistar rats [3]; 3 mg/kg MPEP, 0.01 mg/kg/inf nic, FR5 TO20 sec)?
Answer: Its value is 11 ± 2.7.

Question: What about the “Number” value (male Wistar rats [3]; 3 mg/kg MPEP, 0.03 mg/kg/inf nic, FR5 TO20 sec) of the same molecule?
Answer: The value was 11.4 ± 1.2.

Question: What about the “Number” value (male Wistar rats [3]; 3 mg/kg MPEP, 45 mg food pellet, FR5 TO20 sec) of the same molecule?
Answer: The value was 122.2 ± 7.4.

Question: And the “Number” value (male Wistar rats [3]; 3 mg/kg MPEP, 45 mg food pellet, FR5 TO210 sec)?
Answer: The value was 15.2 ± 0.5.

Question: And the “Number” value (male Wistar rats [3]; 9 mg/kg MPEP, 0.01 mg/kg/inf nic, FR5 TO20 sec)?
Answer: Its value is 9.1 ± 3.0.

Question: And the “Number” value (male Wistar rats [3]; 9 mg/kg MPEP, 0.03 mg/kg/inf nic, FR5 TO20 sec)?
Answer: Its value is 4.8 ± 1.5.

Question: And the “Number” value (male Wistar rats [3]; 9 mg/kg MPEP, 45 mg food pellet, FR5 TO20 sec)?
Answer: Its value is 109 ± 12.98.

Question: What about the “Number” value (male Wistar rats [3]; 9 mg/kg MPEP, 45 mg food pellet, FR5 TO210 sec) of the same molecule?
Answer: The value was 15.2 ± 0.6.

Question: What about the nicotine self-administration (male Wistar rats [3]; 3 and 9 mg/kg MPEP, 0.01 mg/kg/infusion nicotine) of the same molecule?
Answer: The nicotine self-administration was “significantly reduced self-administration of the 0.01 mg/kg/infusion nicotine dose relative to the vehicle condition”.

Question: What about the nicotine self-administration (male Wistar rats [3]; MPEP 1, 3, 9 mg/kg, 0.03 mg/kg/inf nicotine) of the same molecule?
Answer: Its nicotine self-administration is “decreasing self-administration of the 0.03 mg/kg/inf dose only at 9 mg/kg”.

Question: What about the inactive lever presses (male Wistar rats [3]; MPEP 1-9 mg/kg) of the same molecule?
Answer: Its inactive lever presses is “no effect of MPEP on inactive lever presses for any of the reinforcers”.

Question: What about the rotarod performance (mice [4]) of the same molecule?
Answer: The rotarod performance was “had no effect on rotarod performance”.

Question: And the cocaine responding (Wistar rats; 3, 6 and 9 mg/kg MPEP, ShA and LgA rats collapsed)?
Answer: Its cocaine responding is “significantly decreased cocaine responding in the collapsed group”.

Question: What about the cocaine responding (Wistar rats; 3, 6 and 9 mg/kg MPEP, ShA rats) of the same molecule?
Answer: Its cocaine responding is “significantly decreased cocaine responding in ShA rats”.

Question: And the cocaine self-administration (Wistar rats; MPEP 1-9 mg/kg, FR5 TO20 sec)?
Answer: Its cocaine self-administration is “decreased cocaine self-administration in ShA and LgA rats”.

Question: And the cocaine responding (Wistar rats; only the highest dose of MPEP (9 mg/kg), LgA rats)?
Answer: The cocaine responding was “significantly decreased cocaine responding in LgA rats”.

Question: And the cocaine self-administration (mice [5])?
Answer: The cocaine self-administration was “dose-dependent reduction in cocaine self-administration without affecting responding for food”.
